Assay results: patent publication US9617242B2, “Histone demethylase inhibitors” (priority 2012, dated 2017)

What was measured:
KDM5A/B = assay: In vitro cell-based assay: tri-methyl H3K4 immuno-blotting in ZR-75-1 breast cancer cells; conditions: 72 hours, read-out: Cellular IC50
Experimental: This quantitative immuno-blotting assay measures the amount tri-methylated histone H3 at amino acid Lysine number 4, a specific substrate […] of the direct enzymatic activity of the histone demethylases KDM5A and KDM5B from extracts of the ZR-75-1 breast cancer cell line.
This assay is a fluorometric immunoassay for the quantification of tri-methyl H3K4 extracted from cells treated with test compound and is used as a measure of the cellular inhibition of KDM5A/B.
Extracts were prepared containing all of the cellular histone material using detergent based lysis and sonication methods. These lysates were subsequently normalized for total protein content using a colorimetric bicinchonic acid assay (MicroBCA Pierce/Thermo Scientific). Normalized cell extracts were then subjected to typical immuno-blotting procedures using NuPage reagents (Life Technologies). Electrophoretically separated histones were then transferred and immobilized using polyvinylidene difluoride membrane (Immobilon-FL Millipore). The amount of tri-methylated lysine 4 of histone H3 was detected using an antibody specific to the tri-methylated state (Cell Signaling Technologies) and quantified on an infrared imager using a densitometry software package (Odyssey CLx, Image Studio, Li-Cor). This background subtracted densitometry value was reported as a ration of the GAPDH amount for that sample and then calculated as a percent of the DMSO treated sample. The software package XL-fit (IDBS) was then used to calculate a relative IC50 value for the dilution series of a given test compound according to the equation: fit=(D+((Vmax*(x^n))/((x^n)+(Km^n)))).

JMJD2C = JMJD2C (Homo sapiens (Human), UniProt Q9H3R0); assay: JMJD2C in vitro enzyme inhibition assay (TR-FRET); assay type: biochemical
JMJD2C, sequence (Q9H3R0 2-372): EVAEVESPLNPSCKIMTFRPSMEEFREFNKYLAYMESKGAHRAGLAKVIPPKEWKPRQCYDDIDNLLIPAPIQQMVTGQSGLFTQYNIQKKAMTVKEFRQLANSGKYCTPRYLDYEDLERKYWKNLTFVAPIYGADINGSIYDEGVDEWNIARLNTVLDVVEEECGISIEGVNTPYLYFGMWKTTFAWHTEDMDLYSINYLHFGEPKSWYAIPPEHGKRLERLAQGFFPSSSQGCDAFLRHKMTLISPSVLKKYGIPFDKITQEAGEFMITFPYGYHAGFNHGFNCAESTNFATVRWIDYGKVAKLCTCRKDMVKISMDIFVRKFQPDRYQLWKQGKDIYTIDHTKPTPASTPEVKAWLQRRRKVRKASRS

Jarid1B = Jarid1B (Homo sapiens (Human), UniProt Q9UGL1); assay: Jarid1B in vitro enzyme inhibition assay (TR-FRET); assay type: biochemical
Jarid1B, sequence (Q9UGL1 2-751): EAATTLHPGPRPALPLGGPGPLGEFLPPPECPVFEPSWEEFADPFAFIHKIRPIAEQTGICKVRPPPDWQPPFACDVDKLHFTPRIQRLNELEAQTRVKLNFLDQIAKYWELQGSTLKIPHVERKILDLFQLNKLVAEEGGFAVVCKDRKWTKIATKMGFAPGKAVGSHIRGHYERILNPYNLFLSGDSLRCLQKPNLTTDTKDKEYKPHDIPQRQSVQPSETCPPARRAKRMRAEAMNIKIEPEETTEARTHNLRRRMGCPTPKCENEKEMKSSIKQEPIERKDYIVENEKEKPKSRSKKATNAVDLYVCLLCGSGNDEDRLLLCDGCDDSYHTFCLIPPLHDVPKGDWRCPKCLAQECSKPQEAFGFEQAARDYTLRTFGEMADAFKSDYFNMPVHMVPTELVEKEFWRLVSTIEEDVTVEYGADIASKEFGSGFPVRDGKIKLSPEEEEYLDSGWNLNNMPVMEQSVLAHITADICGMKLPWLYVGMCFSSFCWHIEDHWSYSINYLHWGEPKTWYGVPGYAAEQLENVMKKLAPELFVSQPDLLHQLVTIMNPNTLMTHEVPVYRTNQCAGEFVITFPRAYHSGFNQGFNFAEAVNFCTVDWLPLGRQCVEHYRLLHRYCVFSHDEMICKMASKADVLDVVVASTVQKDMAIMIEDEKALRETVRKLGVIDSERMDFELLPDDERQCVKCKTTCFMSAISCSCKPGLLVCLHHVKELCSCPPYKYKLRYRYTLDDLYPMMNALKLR

Jarid1A = Jarid1A (Homo sapiens (Human), UniProt P29375); assay: Jarid1A in vitro enzyme inhibition assay (TR-FRET); assay type: biochemical
Jarid1A, sequence (P29375 1-1090): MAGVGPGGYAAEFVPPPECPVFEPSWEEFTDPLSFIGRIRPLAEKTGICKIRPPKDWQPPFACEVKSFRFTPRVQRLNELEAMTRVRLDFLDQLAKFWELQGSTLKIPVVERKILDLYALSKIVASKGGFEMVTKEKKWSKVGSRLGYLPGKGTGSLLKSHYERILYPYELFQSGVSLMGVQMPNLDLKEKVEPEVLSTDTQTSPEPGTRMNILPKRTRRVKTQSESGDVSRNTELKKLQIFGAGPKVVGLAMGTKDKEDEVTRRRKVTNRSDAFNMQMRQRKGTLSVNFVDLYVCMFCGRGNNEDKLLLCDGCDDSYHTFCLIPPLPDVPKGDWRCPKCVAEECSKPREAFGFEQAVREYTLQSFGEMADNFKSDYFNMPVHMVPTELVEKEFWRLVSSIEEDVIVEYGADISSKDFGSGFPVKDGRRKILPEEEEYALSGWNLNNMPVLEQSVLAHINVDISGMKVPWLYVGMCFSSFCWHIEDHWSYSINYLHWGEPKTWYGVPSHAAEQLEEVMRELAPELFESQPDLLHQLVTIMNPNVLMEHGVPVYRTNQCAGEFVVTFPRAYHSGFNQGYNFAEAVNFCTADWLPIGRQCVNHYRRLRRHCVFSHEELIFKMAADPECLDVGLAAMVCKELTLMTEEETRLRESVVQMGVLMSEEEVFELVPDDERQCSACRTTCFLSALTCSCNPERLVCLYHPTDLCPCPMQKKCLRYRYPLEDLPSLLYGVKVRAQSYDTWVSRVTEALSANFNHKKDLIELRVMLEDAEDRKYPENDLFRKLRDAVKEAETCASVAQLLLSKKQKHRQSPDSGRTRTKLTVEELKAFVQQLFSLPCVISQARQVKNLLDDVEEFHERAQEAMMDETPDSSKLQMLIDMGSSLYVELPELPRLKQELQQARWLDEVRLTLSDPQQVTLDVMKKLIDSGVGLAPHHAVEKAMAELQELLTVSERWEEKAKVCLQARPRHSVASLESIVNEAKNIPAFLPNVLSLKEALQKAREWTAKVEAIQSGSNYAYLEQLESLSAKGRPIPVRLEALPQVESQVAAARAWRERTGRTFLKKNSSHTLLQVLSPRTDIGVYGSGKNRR

| IC50 (KDM5A/B) [µM] | IC50 (JMJD2C) [nM] | IC50 (Jarid1B) [nM] | IC50 (Jarid1A) [nM] | Compound |
| --- | --- | --- | --- | --- |
| 1 to 10 | < 100 | < 100 | < 100 | O=C(O)c1ccncc1Nc1nn(CCN2CCCC2)c2ccc(F)cc12 [Example 50, 3-({5-fluoro-1-[2-(pyrrolidin-1-yl)ethyl]-1H-indazol-3-yl}amino)pyridine-4-carboxylic acid] |
| 1 to 10 | < 100 | < 100 | < 100 | CC(O)Cn1nc(Nc2cnccc2C(=O)O)c2cc(F)ccc21 (centres unmarked) [Example 51, 3-{[5-fluoro-1-(2-hydroxypropyl)-1H-indazol-3-yl]amino}pyridine-4-carboxylic acid] |
| 1 to 10 | < 100 | < 100 | < 100 | Cn1nc(Nc2cnccc2C(=O)O)c2cc(C(F)(F)F)ccc21 [Example 14, 3-[(5-trifluoromethyl-1-methyl-1H-indazol-3-yl)amino]pyridine-4-carboxylic acid] |
| 1 to 10 | < 100 | < 100 | < 100 | CCCn1nc(Nc2cnccc2C(=O)O)c2cccc(F)c21 [Example 20, 3-[(7-fluoro-1-propyl-1H-indazol-3-yl)amino]pyridine-4-carboxylic acid] |
| 1 to 10 | < 100 | < 100 | < 100 | CCCn1nc(Nc2cnccc2C(=O)O)c2cc(C#N)ccc21 [Example 53] |
| 1 to 10 | < 100 | < 100 | < 100 | CN1CCOC(CCn2nc(Nc3cnccc3C(=O)O)c3cc(F)ccc32)C1 (centres unmarked) [Example 58, 3-({5-fluoro-1-[2-(4-methylmorpholin-2-yl)ethyl]-1H-indazol-3-yl}amino)pyridine-4-carboxylic acid] |
| > 10 | < 100 | < 100 | < 100 | O=C(O)c1ccncc1Nc1nn(CC(O)CO)c2ccc(F)cc12 (centres unmarked) [Example 48, 3-{[1-(2,3-dihydroxypropyl)-5-fluoro-1H-indazol-3-yl]amino}pyridine-4-carboxylic acid] |

| Compound | IC50 (KDM5A/B) [µM] | IC50 (JMJD2C) [nM] | IC50 (Jarid1B) [nM] | IC50 (Jarid1A) [nM] |
| --- | --- | --- | --- | --- |
| O=C(O)c1ccncc1Nc1nn(CCN2CCC(F)(F)C2)c2ccc(F)cc12 [Example 71, 3-({1-[2-(3,3-difluoropyrrolidin-1yl)ethyl]-5-fluoro-1H-indazol-3-yl}amino)pyridine-4-carboxylic acid] | 1 to 10 | < 100 | < 100 | < 100 |
